Measurements published in patent US8530472B2, “Ethynyl derivatives” (Hoffmann-La Roche Inc., priority 2011, dated 2013).

Target: T1, human mGlu5a receptor (Homo sapiens, UniProt P41594)
T1 construct: expressed in transfected cells
Test: Intracellular Ca2+ mobilization assay (mGlu5 PAM)
Assay type: cell-based
Details: for Emax: HEK293, maximal response in % of the maximal stimulatory effect obtained with saturating concentrations of L-glutamate, HEK-293 human mGlu5a cells, read-out: Eff. (%); for EC50: HEK-293 cells stably transfected with human mGlu5a receptor, L-glutamate added at EC20 (typically around 80 μM) after 10-30 min pre-incubation with test compound, read-out: EC50 (nM) mGlu5PAM
Description: A monoclonal HEK-293 cell line stably transfected with a cDNA encoding for the human mGlu5a receptor was generated; for the work with mGlu5 Positive Allosteric Modulators (PAMs), a cell line with low receptor expression levels and low constitutive receptor activity was selected to allow the differentiation of agonistic versus PAM activity. Cells were cultured according to standard protocols (Freshney, 2000) in Dulbecco's Modified Eagle Medium with high glucose supplemented with 1 mM glutamine, 10% (vol/vol) heat-inactivated bovine calf serum, Penicillin/Streptomycin, 50 μg/ml hygromycin and 15 μg/ml blasticidin (all cell culture reagents and antibiotics from Invitrogen, Basel, Switzerland).
About 24 hrs before an experiment, 5×10^4 cells/well were seeded in poly-D-lysine coated, black/clear-bottomed 96-well plates. The cells were loaded with 2.5 μM Fluo-4AM in loading buffer (1×HBSS, 20 mM HEPES) for 1 hr at 37° C. and washed five times with loading buffer. The cells were transferred into a Functional Drug Screening System 7000 (Hamamatsu, Paris, France), and 11 half logarithmic serial dilutions of test compound at 37° C. were added and the cells were incubated for 10-30 min. with on-line recording of fluorescence. Following this pre-incubation step, the agonist L-glutamate was added to the cells at a concentration corresponding to EC20 (typically around 80 μM) with on-line recording of fluorescence; in order to account for day-to-day variations in the responsiveness of cells, the EC20 of glutamate was determined immediately ahead of each experiment by recording of a full dose-response curve of glutamate.
Responses were measured as peak increase in fluorescence minus basal (i.e. fluorescence without addition of L-glutamate), normalized to the maximal stimulatory effect obtained with saturating concentrations of L-glutamate. Graphs were plotted with the % maximal stimulatory using XLfit, a curve fitting program that iteratively plots the data using Levenburg Marquardt algorithm. The single site competition analysis equation used was y=A+((B−A)/(1+((x/C)D))), where y is the % maximal stimulatory effect, A is the minimum y, B is the maximum y, C is the EC50, x is the log 10 of the concentration of the competing compound and D is the slope of the curve (the Hill Coefficient). From these curves the EC50 (concentration at which half maximal stimulation was achieved), the Hill coefficient as well as the maximal response in % of the maximal stimulatory effect obtained with saturating concentrations of L-glutamate were calculated.
A depression of the signal observed after addition of the EC20 concentration of L-glutamate was indicative of an inhibitory activity of the test compound.

T1 sequence (P41594 21-1180 isoform P41594-2 limits assumed): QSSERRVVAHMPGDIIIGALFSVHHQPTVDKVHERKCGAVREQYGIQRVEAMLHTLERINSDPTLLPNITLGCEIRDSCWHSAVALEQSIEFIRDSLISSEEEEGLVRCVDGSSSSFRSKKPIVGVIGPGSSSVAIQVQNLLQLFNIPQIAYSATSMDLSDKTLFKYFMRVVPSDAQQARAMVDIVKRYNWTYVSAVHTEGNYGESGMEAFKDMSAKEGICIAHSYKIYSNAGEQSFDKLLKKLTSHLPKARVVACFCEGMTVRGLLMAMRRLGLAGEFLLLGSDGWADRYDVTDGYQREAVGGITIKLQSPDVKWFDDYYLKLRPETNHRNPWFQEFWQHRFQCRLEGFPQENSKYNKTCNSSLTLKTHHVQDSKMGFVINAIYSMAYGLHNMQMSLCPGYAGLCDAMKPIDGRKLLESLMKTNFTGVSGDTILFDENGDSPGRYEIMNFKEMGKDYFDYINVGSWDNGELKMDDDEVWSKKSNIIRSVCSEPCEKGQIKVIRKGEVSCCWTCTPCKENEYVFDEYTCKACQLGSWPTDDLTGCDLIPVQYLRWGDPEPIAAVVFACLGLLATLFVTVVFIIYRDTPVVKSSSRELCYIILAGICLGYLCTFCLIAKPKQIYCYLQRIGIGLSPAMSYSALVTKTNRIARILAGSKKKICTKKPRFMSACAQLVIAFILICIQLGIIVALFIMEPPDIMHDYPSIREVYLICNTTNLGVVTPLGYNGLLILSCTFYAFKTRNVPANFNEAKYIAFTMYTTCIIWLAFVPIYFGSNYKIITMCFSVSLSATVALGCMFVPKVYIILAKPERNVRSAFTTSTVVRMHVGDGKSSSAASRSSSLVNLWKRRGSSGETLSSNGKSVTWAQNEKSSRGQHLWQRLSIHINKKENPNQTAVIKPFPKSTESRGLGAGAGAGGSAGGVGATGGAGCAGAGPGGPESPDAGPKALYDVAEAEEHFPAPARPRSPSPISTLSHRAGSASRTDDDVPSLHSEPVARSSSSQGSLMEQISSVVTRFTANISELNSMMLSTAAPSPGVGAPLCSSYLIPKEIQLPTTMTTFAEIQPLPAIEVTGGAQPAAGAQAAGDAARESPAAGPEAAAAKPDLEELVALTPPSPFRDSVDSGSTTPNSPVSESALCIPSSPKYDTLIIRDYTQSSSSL

| Emax [%] | EC50 [nM] | Structure (SMILES) |
| --- | --- | --- |
| 75 | 48 | CCCC(C)C(=O)Nc1ccc(C#Cc2ccccc2)cn1 (racemic) [Example 5, (RS)-2-Methyl-pentanoic acid (5-phenylethynyl-pyridin-2-yl)-amide] |
| 72 | 19 | CC(C)(C)C(=O)Nc1ccc(C#Cc2ccccc2)cn1 [Example 1, 2,2-Dimethyl-N-(5-phenylethynyl-pyridin-2-yl)-propionamide] |
| 52 | 70 | CCCC(=O)Nc1ccc(C#Cc2ccccc2)cn1 [Example 2, N-(5-Phenylethynyl-pyridin-2-yl)-butyramide] |
| 84 | 48 | CCCCC(=O)Nc1ccc(C#Cc2ccccc2)cn1 [Example 3, Pentanoic acid (5-phenylethynyl-pyridin-2-yl)-amide] |
| 83 | 71 | CC(C)CC(=O)Nc1ccc(C#Cc2ccccc2)cn1 [Example 4, 3-Methyl-N-(5-phenylethynyl-pyridin-2-yl)-butyramide] |
| 47 | 18 | CSCC(=O)Nc1ccc(C#Cc2ccccc2)cn1 [Example 6, 2-Methylsulfanyl-N-(5-phenylethynyl-pyridin-2-yl)-acetamide] |
| 43 | 49 | COCC(=O)Nc1ccc(C#Cc2ccccc2)cn1 [Example 10, 2-Methoxy-N-(5-phenylethynyl-pyridin-2-yl)-acetamide] |

Continued, molecule first:

| Structure (SMILES) | Emax [%] | EC50 [nM] |
| --- | --- | --- |
| CC(C)(C)C(=O)Nc1ncc(C#Cc2ccccc2)cn1 [Example 7, 2,2-Dimethyl-N-(5-phenylethynyl-pyrimidin-2-yl)-propionamide] | 59 | 56 |
| CN(C(=O)C(C)(C)C)c1ncc(C#Cc2ccccc2)cn1 [Example 8, 2,2,N-Trimethyl-N-(5-phenylethynyl-pyrimidin-2-yl)-propionamide] | 74 | 52 |
| CC(C)(C)C(=O)Nc1ccc(C#Cc2ccccc2)nn1 [Example 9, 2,2-Dimethyl-N-(6-phenylethynyl-pyridazin-3-yl)-propionamide] | 73 | 6 |
| CC(C)(C)C(=O)Nc1ccc(C#Cc2cccc(F)c2)cn1 [Example 11, N-[5-(3-Fluoro-phenylethynyl)-pyridin-2-yl]-2,2-dimethyl-propionamide] | 44 | 15 |
| COC(C)(C)C(=O)Nc1ccc(C#Cc2ccccc2)cn1 [Example 12, 2-Methoxy-2-methyl-N-(5-phenylethynyl-pyridin-2-yl)-propionamide] | 68 | 77 |
| COC(C)(C)C(=O)Nc1ccc(C#Cc2cccc(F)c2)cn1 [Example 13, N-[5-(3-Fluoro-phenylethynyl)-pyridin-2-yl]-2-methoxy-2-methyl-propionamide] | 54 | 85 |
| COC(C)(C)C(=O)Nc1ccc(C#Cc2cc(F)ccc2F)cn1 [Example 14, N-[5-(2,5-Difluoro-phenylethynyl)-pyridin-2-yl]-2-methoxy-2-methyl-propionamide] | 47 | 94 |
| CC(C)(C(=O)Nc1ccc(C#Cc2cccc(Cl)c2)cn1)C(F)(F)F [Example 15, N-[5-(3-Chloro-phenylethynyl)-pyridin-2-yl]-3,3,3-trifluoro-2,2-dimethyl-propionamide] | 46 | 19 |
| CC(C)(C)C(=O)Nc1ccc(C#Cc2cccc(Cl)c2)nn1 [Example 16, N-[6-(3-Chloro-phenylethynyl)-pyridazin-3-yl]-2,2-dimethyl-propionamide] | 45 | 7 |
